Reference: patent US8058270B2, “Dihydropteridinones for the treatment of cancer diseases” (Boehringer Ingelheim International GmbH, priority 2004, dated 2011)

Columns and labels:
Test in all cases: Alamar Blue cytotoxicity assay
Format in all cases: cell-based
A431 = conditions: Homo sapiens, A-431; A431 (Vulva), 72 h
Description: (§1) Alamar Blue™ Cytotoxicity Assays
(§2) The Alamar Blue™ assay is designed to measure quantitatively the proliferation of cells by incorporating a fluorometric/colorimetric growth indicator based on the detection of metabolic activity.
(§3) Cell culture: The various human tumor cell lines can be purchased from American Type Culture Collection (ATCC) or the German Collection of Microorganisms and Cell Cultures (DSMZ) and cultivated in 75 to 175 cm^2 tissue culture flasks in the medium indicated by the supplier. The cells are maintained at 37° C. and 5% CO2 in a humidified atmosphere, with an appropriate split ratio. Logarithmically growing cells are used for the assays.
(§4) Assay conditions: On day one of the experiment 1000-4000 cells (in 100 μl medium) are seeded into each well of a sterile 96-well plate. The number of cells used is dependent on the growth rate and size of the cells. Eight wells on each plate are left free to accommodate for controls (4 wells for medium plus reduced AlamarBlue™, and 4 wells for medium plus oxidized AlamarBlue™). The plates are kept in the incubator overnight. On day two of the experiment serial dilutions of the inhibitor are prepared in medium containing 0.1% DMSO. Typical concentrations used are 10, 3, 1, 0.3, 0.1, 0.03, 0.01, 0.003 and 0.001 μM. 100 μl of the dilution (2× concentrate) is added to each well to yield a final volume of 200 μl per well. As controls plain medium and medium containing 0.1% DMSO are added to the designated wells. All data points are done in quadruplicates. The cells are then incubated for 72 h. After this incubation period 20 μl of AlamarBlue™ is added to each well. As a control, 20 μl of reduced AlamarBlue™ (AlamarBlue™ autoclaved for 30 min) is added to 4 wells without cells, and 20 μl of AlamarBlue™ is added to the remaining 4 wells without cells. After 4-5 h of incubation, the plates are measured in a fluorescence spectrophotometer (excitation 530 nm, emission 590 nm, slits 15, integrate time 0.1).
(§5) Data analysis: For calculation the mean value from the quadruplicates is taken and the background is subtracted. The 0.1% DMSO value (the mean obtained from 8 wells with cells in medium with 0.1% DMSO but no compound) is taken as 100% control. The data is fitted by iterative calculations using a sigmoidal curve analysis program (Graph Pad Prism version 3.03) with variable Hill slope.

A549 = conditions: Homo sapiens; A549 (Lung), 72 h
Description: as §1, §2, §3, §4, §5

BRO = conditions: Homo sapiens; BRO (Melanoma), 72 h
Description: as §1, §2, §3, §4, §5

BxPC-3 = conditions: Homo sapiens; BxPC-3 (Pancreas), 72 h
Description: as §1, §2, §3, §4, §5

Colo 205 = conditions: Homo sapiens; Colo 205 (Colon), 72 h
Description: as §1, §2, §3, §4, §5

DU145 = conditions: Homo sapiens, DU-145; DU145 (Prostate), 72 h
Description: as §1, §2, §3, §4, §5

FaDu = conditions: Homo sapiens; FaDu (Head and Neck), 72 h
Description: as §1, §2, §3, §4, §5

GRANTA-519 = conditions: Homo sapiens; GRANTA-519 (Lymphoma), 72 h
Description: as §1, §2, §3, §4, §5

H4 = conditions: Homo sapiens; H4 (Brain), 72 h
Description: as §1, §2, §3, §4, §5

HCT116 = conditions: Homo sapiens, HCT-116; HCT116 (Colon), 72 h
Description: as §1, §2, §3, §4, §5

HL-60 = conditions: Homo sapiens; HL-60 (Leukemia), 72 h
Description: as §1, §2, §3, §4, §5

HT29 = conditions: Homo sapiens, HT-29; HT29 (Colon), 72 h
Description: as §1, §2, §3, §4, §5

HeLa S3 = conditions: Homo sapiens; HeLa S3 (Cervix), 72 h
Description: as §1, §2, §3, §4, §5

HepG2 = conditions: Homo sapiens; HepG2 (Liver), 72 h
Description: as §1, §2, §3, §4, §5

MCF7 = conditions: Homo sapiens; MCF7 (Breast), 72 h
Description: as §1, §2, §3, §4, §5

MDA-MB-435S = conditions: Homo sapiens; MDA-MB-435S (Breast), 72 h
Description: as §1, §2, §3, §4, §5

MES-SA = conditions: Homo sapiens; MES-SA (Uterus), 72 h
Description: as §1, §2, §3, §4, §5

Mia CaPa-2 = conditions: Homo sapiens; Mia CaPa-2 (Pancreas), 72 h
Description: as §1, §2, §3, §4, §5

NCI-H460 = conditions: Homo sapiens; NCI-H460 (Lung), 72 h
Description: as §1, §2, §3, §4, §5

NCI-H520 = conditions: Homo sapiens; NCI-H520 (Lung), 72 h
Description: as §1, §2, §3, §4, §5

NCI-N87 = conditions: Homo sapiens; NCI-N87 (Stomach), 72 h
Description: as §1, §2, §3, §4, §5

## CC[C@@H]1C(=O)N(C)c2cnc(Nc3ccc(C(=O)NC4CCN(C)CC4)cc3OC)nc2N1C1CCCC1 [4-[[(7R)-8-cyclopentyl-7-ethyl-5,6,7,8-tetrahydro-5-methyl-6-oxo-2-pteridinyl]amino]-3-methoxy-N-(1-methyl-4-piperidinyl)-benzamide]
A431
  EC50: 2 nM
A549
  EC50: 6 nM
BRO
  EC50: 4 nM
BxPC-3
  EC50: 25 nM
Colo 205
  EC50: 9 nM
DU145
  EC50: 6 nM
FaDu
  EC50: 6 nM
GRANTA-519
  EC50: 5 nM
H4
  EC50: 22 nM
HCT116
  EC50: 9 nM
HL-60
  EC50: 14 nM
HT29
  EC50: 4 nM
HeLa S3
  EC50: 12 nM
HepG2
  EC50: 10 nM
MCF7
  EC50: 9 nM
MDA-MB-435S
  EC50: 17 nM
MES-SA
  EC50: 10 nM
Mia CaPa-2
  EC50: 7 nM
NCI-H460
  EC50: 14 nM
NCI-H520
  EC50: 10 nM
NCI-N87
  EC50: 14 nM
